Experiments:
CYP2A6 = system: T1, CYP2A6; assay: Sepin-1 metabolism by recombinant CYP2A6; assay type: in vitro ADME, human; conditions: 30 μM sepin-1, 2 pmol cDNA-expressed enzyme, NADPH 1.0 mM, 30 min; unit not given, highest enzyme per metabolite = 100.0
T1 construct: purchased XenoTech
Experimental: (§1) Incubations were conducted in 1× phosphate-buffered saline (1× PBS, pH 7.4), containing 30 μM sepin-1, 1.0 mg HLM, MLM, RLM, or 2 pmol of each cDNA-expressed P450 enzyme (control, CYP1A2, 2A6, 2B6, 2C8, 2C9, 2C19, 2D6, 2E1, and CYP3A4) in a final volume of 190 μl. After 5 min of pre-incubation at 37°C, the reaction was initiated by adding 10 μl of 20 mM NADPH (final concentration 1.0 mM) and continued for 30 min, with shaking at 37°C. Incubations lacking NADPH served as controls. Reactions were terminated with 200 μl of ice-cold methanol, followed by vortexing for 30 s and centrifuging at 15,000 × g for 15 min. Each supernatant was transferred to an auto sampler vial, and 5.0 μl was injected on to UHPLC coupled with a QTOFMS system for metabolite analysis. Incubations were conducted in quadruplicate for HLM, in triplicate for MLM and RLM, and in duplicate for cDNA-expressed P450 enzymes.
(§2) The separation of sepin-1 and its metabolites was achieved using a 1260 Infinity Binary LC System (Agilent Technologies, Santa Clara, CA, United States) equipped with 100 mm × 2.1 mm (Agilent XDB C18) column. The column temperature was maintained at 40°C. The flow rate was 0.3 ml/min, with a gradient ranging from 2% to 98% aqueous acetonitrile containing 0.1% formic acid in a 15-min run. QTOFMS was operated in a positive mode with electrospray ionization. […]

CYP2B6 = target: T2, CYP2B6 (Homo sapiens, UniProt P20813); assay: Sepin-1 metabolism by recombinant CYP2B6; assay type: in vitro ADME; conditions: 30 μM sepin-1, 2 pmol cDNA-expressed enzyme, NADPH 1.0 mM, 30 min; unit not given, highest enzyme per metabolite = 100.0
T2 construct: purchased XenoTech
T2 sequence (P20813 1-491): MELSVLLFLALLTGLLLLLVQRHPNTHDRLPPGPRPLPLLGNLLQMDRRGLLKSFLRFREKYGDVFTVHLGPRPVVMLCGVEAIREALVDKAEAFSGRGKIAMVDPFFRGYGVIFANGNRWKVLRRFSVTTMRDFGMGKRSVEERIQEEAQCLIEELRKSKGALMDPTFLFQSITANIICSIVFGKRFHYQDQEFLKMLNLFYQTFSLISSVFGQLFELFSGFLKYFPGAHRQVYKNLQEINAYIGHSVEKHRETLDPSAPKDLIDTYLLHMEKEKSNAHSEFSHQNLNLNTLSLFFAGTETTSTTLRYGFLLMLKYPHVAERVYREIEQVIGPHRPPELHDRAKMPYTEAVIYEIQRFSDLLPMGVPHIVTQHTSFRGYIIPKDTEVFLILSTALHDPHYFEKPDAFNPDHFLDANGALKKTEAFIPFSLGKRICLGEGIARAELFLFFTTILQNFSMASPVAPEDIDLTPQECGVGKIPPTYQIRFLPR
Experimental: as §1, §2

[1] = Sepin-1 metabolism with cDNA-expressed P450 control; assay type: in vitro ADME, human; conditions: 30 μM sepin-1, control enzyme preparation, NADPH 1.0 mM, 30 min; unit not given, highest enzyme per metabolite = 100.0
Experimental: as §1, §2

[2] = Metabolism of sepin-1 in HLM, MLM and RLM (metabolite profiling, UHPLC-QTOFMS); assay type: in vitro ADME, human, mouse, rat; conditions: 30 min; for Source (liver microsomes in which the metabolite was found): 30 μM sepin-1, 1.0 mg microsomes, NADPH 1.0 mM, 37°C; for Relative abundance of metabolite across HLM, MLM and RLM (in words): 30 μM sepin-1, NADPH 1.0 mM
Experimental: as §1
(§3) The separation of sepin-1 and its metabolites was achieved using a 1260 Infinity Binary LC System (Agilent Technologies, Santa Clara, CA, United States) equipped with 100 mm × 2.1 mm (Agilent XDB C18) column. The column temperature was maintained at 40°C. The flow rate was 0.3 ml/min, with a gradient ranging from 2% to 98% aqueous acetonitrile containing 0.1% formic acid in a 15-min run. QTOFMS was operated in a positive mode with electrospray ionization. Ultra-high pure nitrogen was applied as the drying gas (12 l/min) and the collision gas. The drying gas temperature was set at 325°C, and the nebulizer pressure was kept at 35 psi. The capillary voltages were set at 3.5 kV. During MS, real-time mass correction and accurate mass were achieved by continuously measuring standard reference ions at m/z 121.0508 and 922.0098 in the positive mode. The MS/MS of sepin-1 metabolites was performed in a targeted mode with a default isolation width of m/z 4 and collision energy ramp ranging from 10 to 45 V.
Mass chromatograms and mass spectra were acquired by MassHunter Workstation Data Acquisition Software (Agilent, Santa Clara, CA, United States) in centroid and profile formats from m/z 100 to 1000. The acquisition rate was set as 1.5 spectra per second. Centroid and integrated mass chromatographic data were processed by Mass Profinder and Mass Profiler Professional Software (Agilent, Santa Clara, CA, United States) to generate a multivariate data matrix. The corresponding data matrices were then exported into SIMCA13 (Umetrics, Kinnelon, NJ, United States) for multivariate data analysis. OPLS-DA was conducted on Pareto-scaled data. For the QQQMS data, QQQ Quantitative Analysis Software (Agilent, Santa Clara, CA, United States) was used for metabolite analysis. […] Statistical differences between two groups were determined by Student’s t-test.

CYP1A2 = target: T3, CYP1A2 (Homo sapiens, UniProt P05177); assay: Sepin-1 metabolism by recombinant CYP1A2; assay type: in vitro ADME; conditions: 30 μM sepin-1, 2 pmol cDNA-expressed enzyme, NADPH 1.0 mM, 30 min; unit not given, highest enzyme per metabolite = 100.0
T3 construct: purchased XenoTech
T3 sequence (P05177 1-516): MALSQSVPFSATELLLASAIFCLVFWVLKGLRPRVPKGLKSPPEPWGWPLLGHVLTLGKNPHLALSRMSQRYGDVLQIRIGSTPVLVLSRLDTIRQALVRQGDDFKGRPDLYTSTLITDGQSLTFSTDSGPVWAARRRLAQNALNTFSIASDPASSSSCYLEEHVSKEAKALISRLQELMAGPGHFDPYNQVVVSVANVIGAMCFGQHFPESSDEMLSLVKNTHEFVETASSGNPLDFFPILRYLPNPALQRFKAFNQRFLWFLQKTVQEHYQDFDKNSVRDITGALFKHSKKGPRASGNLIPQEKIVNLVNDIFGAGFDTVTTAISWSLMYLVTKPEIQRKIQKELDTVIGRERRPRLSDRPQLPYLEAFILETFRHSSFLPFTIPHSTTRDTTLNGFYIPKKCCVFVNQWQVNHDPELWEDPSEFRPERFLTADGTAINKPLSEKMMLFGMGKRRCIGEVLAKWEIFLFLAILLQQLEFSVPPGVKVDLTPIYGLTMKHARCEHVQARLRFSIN
Experimental: as §1, §2

CYP2C19 = target: T4, CYP2C19 (Homo sapiens, UniProt P33261); assay: Sepin-1 metabolism by recombinant CYP2C19; assay type: in vitro ADME; conditions: 30 μM sepin-1, 2 pmol cDNA-expressed enzyme, NADPH 1.0 mM, 30 min; unit not given, highest enzyme per metabolite = 100.0
T4 construct: purchased XenoTech
T4 sequence (P33261 whole entry): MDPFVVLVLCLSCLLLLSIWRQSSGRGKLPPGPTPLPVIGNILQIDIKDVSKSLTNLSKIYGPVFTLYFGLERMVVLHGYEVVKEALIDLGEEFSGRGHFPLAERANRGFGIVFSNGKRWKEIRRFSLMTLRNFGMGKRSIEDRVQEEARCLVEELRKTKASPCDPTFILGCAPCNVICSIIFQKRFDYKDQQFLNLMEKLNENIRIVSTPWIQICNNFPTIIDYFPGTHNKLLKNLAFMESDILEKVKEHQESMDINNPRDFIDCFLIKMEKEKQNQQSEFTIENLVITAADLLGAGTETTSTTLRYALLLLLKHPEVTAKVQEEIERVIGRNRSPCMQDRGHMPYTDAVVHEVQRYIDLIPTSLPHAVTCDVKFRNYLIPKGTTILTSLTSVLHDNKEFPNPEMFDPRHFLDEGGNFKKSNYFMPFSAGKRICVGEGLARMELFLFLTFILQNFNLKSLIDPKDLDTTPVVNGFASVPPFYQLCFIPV
Experimental: as §1, §2

CYP3A4 = target: T5, CYP3A4 (Homo sapiens, UniProt P08684); assay: Sepin-1 metabolism by recombinant CYP3A4; assay type: in vitro ADME; conditions: 30 μM sepin-1, 2 pmol cDNA-expressed enzyme, NADPH 1.0 mM, 30 min; unit not given, highest enzyme per metabolite = 100.0
T5 construct: purchased XenoTech
T5 sequence (P08684 whole entry): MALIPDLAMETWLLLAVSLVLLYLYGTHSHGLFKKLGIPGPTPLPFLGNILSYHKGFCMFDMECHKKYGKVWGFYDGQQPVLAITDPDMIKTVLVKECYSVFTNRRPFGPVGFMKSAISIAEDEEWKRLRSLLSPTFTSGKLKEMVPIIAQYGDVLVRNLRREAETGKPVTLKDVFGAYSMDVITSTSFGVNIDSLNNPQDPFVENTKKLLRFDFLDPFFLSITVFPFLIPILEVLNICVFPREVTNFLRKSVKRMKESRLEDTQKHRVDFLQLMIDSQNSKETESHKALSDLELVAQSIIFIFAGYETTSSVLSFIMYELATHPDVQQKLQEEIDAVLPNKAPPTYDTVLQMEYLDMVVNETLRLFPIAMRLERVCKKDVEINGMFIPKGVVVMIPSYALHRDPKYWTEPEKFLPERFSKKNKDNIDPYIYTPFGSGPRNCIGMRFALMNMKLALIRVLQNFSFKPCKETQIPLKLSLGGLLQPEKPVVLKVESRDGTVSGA
Experimental: as §1, §2

CYP2D6 = target: T6, CYP2D6 (Homo sapiens, UniProt P10635); assay: Sepin-1 metabolism by recombinant CYP2D6; assay type: in vitro ADME; conditions: 30 μM sepin-1, 2 pmol cDNA-expressed enzyme, NADPH 1.0 mM, 30 min; unit not given, highest enzyme per metabolite = 100.0
T6 construct: purchased XenoTech
T6 sequence (P10635 whole entry): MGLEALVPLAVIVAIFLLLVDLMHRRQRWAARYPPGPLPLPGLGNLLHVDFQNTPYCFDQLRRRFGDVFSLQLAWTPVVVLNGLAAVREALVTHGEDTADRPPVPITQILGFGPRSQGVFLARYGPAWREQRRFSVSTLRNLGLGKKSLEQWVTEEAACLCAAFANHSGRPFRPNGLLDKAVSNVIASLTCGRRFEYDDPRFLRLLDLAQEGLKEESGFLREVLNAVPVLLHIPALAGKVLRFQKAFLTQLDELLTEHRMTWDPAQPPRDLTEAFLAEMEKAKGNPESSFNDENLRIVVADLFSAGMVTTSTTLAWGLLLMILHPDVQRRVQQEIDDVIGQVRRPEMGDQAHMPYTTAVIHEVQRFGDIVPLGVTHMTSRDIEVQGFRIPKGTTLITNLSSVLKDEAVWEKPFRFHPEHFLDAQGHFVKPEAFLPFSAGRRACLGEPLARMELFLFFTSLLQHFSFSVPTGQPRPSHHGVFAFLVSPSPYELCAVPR
Experimental: as §1, §2

CYP2C9 = target: T7, CYP2C9 (Homo sapiens, UniProt P11712); assay: Sepin-1 metabolism by recombinant CYP2C9; assay type: in vitro ADME; conditions: 30 μM sepin-1, 2 pmol cDNA-expressed enzyme, NADPH 1.0 mM, 30 min; unit not given, highest enzyme per metabolite = 100.0
T7 construct: purchased XenoTech
T7 sequence (P11712 whole entry): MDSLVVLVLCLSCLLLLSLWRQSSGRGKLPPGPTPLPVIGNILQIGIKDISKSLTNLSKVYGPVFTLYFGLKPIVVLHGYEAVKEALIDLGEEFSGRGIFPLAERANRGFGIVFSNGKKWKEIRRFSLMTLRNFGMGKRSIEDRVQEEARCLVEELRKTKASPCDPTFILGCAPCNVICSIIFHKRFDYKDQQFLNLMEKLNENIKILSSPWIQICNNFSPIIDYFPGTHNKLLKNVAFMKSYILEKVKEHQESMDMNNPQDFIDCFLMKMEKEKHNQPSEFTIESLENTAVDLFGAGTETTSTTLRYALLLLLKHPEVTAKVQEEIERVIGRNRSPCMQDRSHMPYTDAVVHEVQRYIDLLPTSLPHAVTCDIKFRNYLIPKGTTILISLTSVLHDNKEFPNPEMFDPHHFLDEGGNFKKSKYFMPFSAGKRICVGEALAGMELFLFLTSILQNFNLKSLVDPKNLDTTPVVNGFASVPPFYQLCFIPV
Experimental: as §1, §2

CYP2C8 = target: T8, CYP2C8 (Homo sapiens, UniProt P10632); assay: Sepin-1 metabolism by recombinant CYP2C8; assay type: in vitro ADME; conditions: 30 μM sepin-1, 2 pmol cDNA-expressed enzyme, NADPH 1.0 mM, 30 min; unit not given, highest enzyme per metabolite = 100.0
T8 construct: purchased XenoTech
T8 sequence (P10632 1-490): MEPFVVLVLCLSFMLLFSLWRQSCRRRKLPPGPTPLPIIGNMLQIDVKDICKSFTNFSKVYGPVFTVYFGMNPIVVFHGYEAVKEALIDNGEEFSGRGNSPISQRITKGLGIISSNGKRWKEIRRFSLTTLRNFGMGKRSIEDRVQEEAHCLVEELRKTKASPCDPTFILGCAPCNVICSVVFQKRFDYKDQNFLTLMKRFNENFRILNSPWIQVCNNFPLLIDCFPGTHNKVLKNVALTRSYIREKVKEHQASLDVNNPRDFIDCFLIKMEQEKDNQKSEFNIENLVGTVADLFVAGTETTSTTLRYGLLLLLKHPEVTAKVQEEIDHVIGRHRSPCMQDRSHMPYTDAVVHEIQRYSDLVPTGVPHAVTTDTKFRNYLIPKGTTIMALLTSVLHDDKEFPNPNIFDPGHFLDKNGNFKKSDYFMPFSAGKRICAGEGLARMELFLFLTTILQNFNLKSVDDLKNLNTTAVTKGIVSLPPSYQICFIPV
Experimental: as §1, §2

CYP2E1 = system: T9, CYP2E1; assay: Sepin-1 metabolism by recombinant CYP2E1; assay type: in vitro ADME, human; conditions: 30 μM sepin-1, 2 pmol cDNA-expressed enzyme, NADPH 1.0 mM, 30 min; unit not given, highest enzyme per metabolite = 100.0
T9 construct: purchased XenoTech
Experimental: as §1, §2

[3] = Metabolism of sepin-1 in human liver microsomes; assay type: in vitro ADME; conditions: HLM, 30 μM sepin-1, with or without NADPH 1.0 mM
Experimental: as §1
as §3, with “During MS, real-time mass correction and accurate mass were achieved by continuously measuring standard reference ions at m/z 121.0508 and 922.0098 in the positive mode. The MS/MS of sepin-1 metabolites was performed in a targeted mode with a default isolation width of m/z 4 and collision energy ramp ranging from 10 to 45 V.” left out
Mass chromatograms and mass spectra were acquired by MassHunter Workstation Data Acquisition Software (Agilent, Santa Clara, CA, United States) in centroid and profile formats from m/z 100 to 1000. […] For the QQQMS data, QQQ Quantitative Analysis Software (Agilent, Santa Clara, CA, United States) was used for metabolite analysis. […] Statistical differences between two groups were determined by Student’s t-test.

| SMILES | Formation of metabolite by CYP2A6 (Role of P450s in the metabolism of sepin-1) (CYP2A6) | Formation of metabolite by CYP2B6 (Role of P450s in the metabolism of sepin-1) (CYP2B6) | Formation of metabolite, Control (Role of P450s in the metabolism of sepin-1) [1] | Source (liver microsomes in which the metabolite was found) [2] | Relative abundance of metabolite across HLM, MLM and RLM (in words) [2] | Formation of metabolite by CYP1A2 (Role of P450s in the metabolism of sepin-1) (CYP1A2) | Formation of metabolite by CYP2C19 (Role of P450s in the metabolism of sepin-1) (CYP2C19) | Formation of metabolite by CYP3A4 (Role of P450s in the metabolism of sepin-1) (CYP3A4) | Formation of metabolite by CYP2D6 (Role of P450s in the metabolism of sepin-1) (CYP2D6) | Formation of metabolite by CYP2C9 (Role of P450s in the metabolism of sepin-1) (CYP2C9) | Formation of metabolite by CYP2C8 (Role of P450s in the metabolism of sepin-1) (CYP2C8) | Formation of metabolite by CYP2E1 (Role of P450s in the metabolism of sepin-1) (CYP2E1) | NADPH dependence of metabolite formation [3] |
| --- | --- | --- | --- | --- | --- | --- | --- | --- | --- | --- | --- | --- | --- |
| CC1(C)[N+]([O-])=c2ccc(N)cc2=[N+]1[O-] [M2] | 76.1 | 85.9 | 41.5 | HLM, MLM, RLM | dominant metabolites in all the three species | 50.5 | 67.5 | 95.3 | 100.0 | 57.2 | 63.6 | 53.2 | NADPH dependent |
| CC1(C)Nc2ccc([N+](=O)[O-])cc2N1 [M1] | 90.8 | 91.9 | 79.5 | HLM, MLM, RLM | dominant metabolites in all the three species | 86.3 | 90.8 | 100.0 | 96.9 | 90.4 | 91.3 | 89.9 | NADPH dependent |

— article PMC5949348, “The Metabolism of Separase Inhibitor Sepin-1 in Human, Mouse, and Rat Liver Microsomes” (Frontiers in Pharmacology, 2018)
